What was measured:
ROCK2 = ROCK2 (Homo sapiens (Human), UniProt O75116); assay: ROCK2 kinase inhibition assay (peptide phosphorylation, LABCHIP 3000); format: biochemical; details: 7 μM ATP, 2.5 nM ROCK2, 3 hours at 25° C.
Procedure: The peptide is phosphorylated by the protein kinase ROCK1 or ROCK2. The ROCK1 or ROCK2 enzyme, substrate, and cofactors (ATP and Mg^2+) are combined in a well of a microtiter plate and incubated for 3 hours at 25° C. in the presence or absence of an inhibitor compound. At the end of the incubation, the reaction is quenched by the addition of an EDTA-containing buffer. The substrate and product are separated and quantified electrophoretically using the microfluidic-based LABCHIP® 3000 Drug Discovery System from Caliper Life Sciences (Hopkinton, Mass.).
The components of the assay mixture are:
10 μM Sodium Orthovanadate
10 LM Beta-Glycerophosphate
5 μM ATP (for ROCK1) or 7 μM ATP (for ROCK2)
3 nM ROCK1 or 2.5 nM ROCK2 enzyme
Substrate and product peptides present in each sample are separated electrophoretically using the LABCHIP® 3000 capillary electrophoresis instrument. […] Change in the relative fluorescence intensity of the substrate and product peaks is the parameter measured reflecting enzyme activity. Capillary electrophoregramms (RDA acquisition files) are analyzed using HTS Well Analyzer software (Caliper Life Sciences, Hopkinton, Mass.). The kinase activity in each sample is determined as the product to sum ratio (PSR): P/(S+P), where P is the peak height of the product peptide and S is the peak height of the substrate peptide. For each compound, enzyme activity is measured at various concentrations (12 concentrations of compound spaced by 3× dilution intervals). Negative control samples (0%-inhibition in the absence of inhibitor) and positive control samples (100%-inhibition in the presence of 20 mM EDTA) are assembled in replicates of four and are used to calculate %-inhibition values for each compound at each concentration. Percent inhibition (Pinh) is determined using the following equation: Pinh=(PSRO %−PSRinh)/(PSRO %−PSR100%)*100
where PSRinh is the product sum ratio in the presence of inhibitor, PSRO % is the average product sum ratio in the absence of inhibitor, and PSR100% is the average product sum ratio in 100%-inhibition control samples. The IC50 values of inhibitors are determined by fitting the inhibition curves (Pinh versus inhibitor concentration) by the 4-parameter sigmoidal dose-response model using XLfit 4 software (IBDS).

K562 cell line = assay: Cell viability assay ([…]-GLO), K562; format: cell-based; details: K562 (does not express ITD-FLT3), 72 hours treatment
Procedure: Cell viability in the presence of varying concentrations of the above listed compounds at different time points was used to assess cytotoxicity and the effect of the compounds on cell proliferation.
Cell viability was measured by the […]-GlO® cell viability assay from Promega (Madison, Wis.). The […]-GlO Luminescent Cell Viability Assay is a homogeneous method to determine the number of viable cells in culture based on quantitation of the ATP present, which signals the presence of metabolically active cells. Following treatment, […]-GlO® is added to treatment wells and incubated at 37° C. Luminescence values were measured at using a Molecular Devices Spectramax microplate reader.
Cells were grown to 70% confluency, trypsinized, counted, and seeded in 96 well flat-bottom plates at a final concentration of 2.5×10^3-5×10^3 cells/well (Day 0). Cells were allowed to incubate in growth media for 24 hours. Treatment with the test agents or standard agents began on Day 1 and continued for 72 hours. At the 72-hour time point, treatment containing media was removed. Viable cell numbers were quantified by the […]-GLO® cell viability assay as described above. Results from these studies were used to calculate an IC50 value (concentration of drug that inhibits cell growth by 50 percent of control) for each compound.
For single agent and combination studies, data from each experiment was collected and expressed as % Cell Growth using the following calculation: % Cell Growth=(ftest/fvehicle)×100
Where ftest is the luminescence of the tested sample, and fvehicle is the luminescence of the vehicle in which the drug is dissolved. Dose response graphs and IC50 values were generated using Prism 6 software (GraphPad) using the following equation: Y=(Top−Bottom)/(1+10^((logIC50-X)−HillSlope))
Where X is the logarithm of the concentration and Y is the response. Y starts at the Bottom and goes to the Top with a sigmoid shape.
The experiments also evaluated the selectivity of the compounds for inhibiting growth of cancer cells carrying a mutation in the Flt3 gene. The MV411 cell line expresses the mutant allele of Flt3 with internal tandem duplications (ITD) of the gene. See Quentmeier et al., “FLT3 Mutations in Acute Myeloid Leukemia Cell Lines,” Leukemia 17(1), 2003, 120-124. […] See Grafone et al., “Monitoring of FLT3 Phosphorylation Status and Its Response to Drugs By Flow Cytometry in AML Blast Cells,” Hematol Oncol. 26(3), 2008, 159-166.

MV411 cell line = assay: Cell viability assay ([…]-GLO), MV411; format: cell-based; details: for IC50: MV411 (ITD-FLT3+), 72 hours treatment; for FLT3-ITD+ Selectivity (K562/MV411): ratio K562/MV411

Chain of ROCK2 (O75116 whole entry, species assumed): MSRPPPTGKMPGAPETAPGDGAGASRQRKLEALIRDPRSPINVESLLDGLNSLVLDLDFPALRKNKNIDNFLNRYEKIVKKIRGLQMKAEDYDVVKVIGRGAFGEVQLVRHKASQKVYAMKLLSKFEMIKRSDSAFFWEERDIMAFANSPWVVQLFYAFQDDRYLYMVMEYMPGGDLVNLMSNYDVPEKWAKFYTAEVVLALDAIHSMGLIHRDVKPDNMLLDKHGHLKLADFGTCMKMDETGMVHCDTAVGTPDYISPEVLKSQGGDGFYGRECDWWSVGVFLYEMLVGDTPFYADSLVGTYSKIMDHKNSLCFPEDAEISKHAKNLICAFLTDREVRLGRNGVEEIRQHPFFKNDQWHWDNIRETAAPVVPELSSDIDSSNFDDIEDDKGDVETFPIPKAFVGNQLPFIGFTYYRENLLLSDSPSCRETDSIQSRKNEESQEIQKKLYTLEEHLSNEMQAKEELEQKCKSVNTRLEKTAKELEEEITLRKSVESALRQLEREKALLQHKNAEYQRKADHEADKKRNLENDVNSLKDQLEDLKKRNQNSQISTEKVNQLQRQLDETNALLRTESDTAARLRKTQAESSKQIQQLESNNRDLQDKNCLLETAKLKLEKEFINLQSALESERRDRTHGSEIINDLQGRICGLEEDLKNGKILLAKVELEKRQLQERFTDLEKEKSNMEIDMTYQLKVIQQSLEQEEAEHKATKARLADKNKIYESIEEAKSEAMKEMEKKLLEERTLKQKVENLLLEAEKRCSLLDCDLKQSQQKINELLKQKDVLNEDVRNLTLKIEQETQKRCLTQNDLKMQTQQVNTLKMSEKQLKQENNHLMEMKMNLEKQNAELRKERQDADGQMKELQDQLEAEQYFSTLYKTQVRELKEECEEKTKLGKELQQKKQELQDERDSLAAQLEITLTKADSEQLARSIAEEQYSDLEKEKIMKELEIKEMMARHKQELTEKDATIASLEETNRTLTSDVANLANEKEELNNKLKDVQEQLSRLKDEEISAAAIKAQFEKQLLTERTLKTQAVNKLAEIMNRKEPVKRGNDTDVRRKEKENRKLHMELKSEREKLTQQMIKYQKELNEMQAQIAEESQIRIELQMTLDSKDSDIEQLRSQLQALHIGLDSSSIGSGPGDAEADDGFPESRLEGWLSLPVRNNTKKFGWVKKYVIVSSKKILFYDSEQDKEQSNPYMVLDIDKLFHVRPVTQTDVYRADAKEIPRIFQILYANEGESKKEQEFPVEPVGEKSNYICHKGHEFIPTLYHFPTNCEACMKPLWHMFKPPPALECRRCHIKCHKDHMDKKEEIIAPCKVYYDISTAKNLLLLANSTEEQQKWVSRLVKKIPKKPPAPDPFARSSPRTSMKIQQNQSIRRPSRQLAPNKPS

Row | SMILES | IC50 (ROCK2) [nM] | IC50 (K562 cell line) [nM] | IC50 (MV411 cell line) [nM] | IC50 (K562 cell line; Homo sapiens) [nM] | IC50 (MV411 cell line; Homo sapiens, MV4-11) [nM] | FLT3-ITD+ Selectivity (K562/MV411) (MV411 cell line)
1 | CNC(=O)c1cccc([C@@H](CO)NC(=O)c2ccc(-c3ccncc3)cc2)c1 [Compound 11] | 2.7 | – | – | > 100000 | 12300 | >8
2 | COC1(CNC(=O)c2cccc([C@@H](CO)NC(=O)c3ccc(-c4ccncc4)cc3)c2)CCC1 [Compound 73] | 0.6 | – | – | 27000 | 80 | 337
3 | O=C(NCC1CCN(C2CC2)CC1)c1cccc([C@@H](CO)NC(=O)c2ccc(-c3ccncc3)cc2)c1 [Compound 58] | 0.44 | – | – | > 100000 | 40 | >2525
4 | COc1ccc(NC(=O)c2cccc([C@@H](CO)NC(=O)c3ccc(-c4ccncc4)cc3)c2)cn1 [Compound 93] | 0.51 | – | – | 85000 | 90 | 935
5 | CN1CCc2ccc(NC(=O)c3cccc([C@@H](CO)NC(=O)c4ccc(-c5ccncc5)cc4)c3)cc2C1=O [Compound 27] | 0.39 | – | – | 25000 | 4400 | 6
6 | C[C@@H](NC(=O)c1ccc(-c2ccncc2)cc1)c1cccc(C(=O)NCC2CCN(C)CC2)c1 [Compound 49] | 0.3 | – | – | > 100000 | 20 | >5050
7 | COc1ccc(C(=O)N[C@H](CO)c2cccc(C(=O)Nc3ccc4c(c3)CN(C)CC4)c2)cc1C [Compound 19] | – | – | – | 44000 | 13200 | 3
8 | O=C(NC1CCCC1)c1cccc([C@@H](CO)NC(=O)c2cccc(-c3cn[nH]c3)c2)c1 [Compound 83] | – | – | – | > 100000 | 3600 | >28

More lines, main results first:

Row | IC50 (ROCK2) [nM] | IC50 (K562 cell line) [nM] | IC50 (MV411 cell line) [nM] | IC50 (K562 cell line; Homo sapiens) [nM] | IC50 (MV411 cell line; Homo sapiens, MV4-11) [nM] | SMILES | FLT3-ITD+ Selectivity (K562/MV411) (MV411 cell line)
9 | 0.57 | > 100000 | 30 | – | – | COC(=O)N1CCC(CNC(=O)c2cccc([C@@H](CO)NC(=O)c3ccc(-c4ccncc4)cc3)c2)CC1 [Compound 91] | >4040
10 | 0.6 | – | – | 28000 | 70 | COc1cccc(CNC(=O)c2cccc([C@@H](CO)NC(=O)c3ccc(-c4ccncc4)cc3)c2)c1 [Compound 65] | 393
11 | 1.7 | – | – | 27000 | 3000 | O=C(NCc1ccccc1)c1cccc([C@@H](CO)NC(=O)c2ccc(-c3ccncc3)cc2)c1 [Compound 13] | 9
12 | 1.8 | – | – | > 100000 | 540 | O=C(NC1CC1)c1cccc([C@@H](CO)NC(=O)c2ccc(-c3ccncc3)cc2)c1 [Compound 12] | >187
13 | 0.61 | – | – | > 100000 | 120 | CN(C)C1CCC(NC(=O)c2cccc([C@@H](CO)NC(=O)c3ccc(-c4ccncc4)cc3)c2)CC1 (some centres unmarked) [Compound 52] | >842
14 | 53.1 | – | – | 101000 | 710 | Cc1cc(-c2cn[nH]c2)ccc1C(=O)N[C@H](CO)c1cccc(C(=O)NC2CCCC2)c1 [Compound 96] | 142
15 | 0.72 | – | – | 66000 | 280 | O=C(NCC1CCCC1)c1cccc([C@@H](CO)NC(=O)c2ccc(-c3ccncc3)cc2)c1 [Compound 89] | 236
16 | 0.57 | – | – | > 100000 | 3800 | O=C(NCC1CCOCC1)c1cccc([C@@H](CO)NC(=O)c2ccc(-c3ccncc3)cc2)c1 [Compound 22] | >27
17 | 0.54 | – | – | 36000 | 100 | CN(C)Cc1ccc(CNC(=O)c2cccc([C@@H](CO)NC(=O)c3ccc(-c4ccncc4)cn3)c2)cc1 [Compound 47] | 360
18 | – | – | – | 800 | 700 | Cc1c[nH]c2nccc(Oc3c(F)cc(Nc4cc(Cl)nc(N)n4)cc3F)c12 [Compound A, reference compound] | –

From patent US10738007B2, “Amide compounds as kinase inhibitors, compositions and methods of treatment” (TRANSLATIONAL DRUG DEVELOPMENT, LLC, priority 2016, dated 2020)
